{"source": "patent US11440870B2", "about": "“Cannabidiolic acid esters compositions and uses thereof” (Yissum Research Development Company of the Hebrew …, priority 2017, dated 2022)", "system": "anxiety-like responding in rats", "assay": "Light-dark box emergence test after foot shock stress (anxiety-like responding)", "type": "in vivo, male Sprague-Dawley rats", "conditions": "WAY100635 i.p. 15 min before VEH; P<0.05", "source_text": "Animal procedures complied with the Canadian Council on Animal Care, and the protocols were approved by the Institutional Animal Care Committee at University of Guelph. Animal studies are reported in compliance with the ARRIVE guidelines (Kilkenny et al., 2010; McGrath and Lilley, 2015). A total of 200 näive male Sprague-Dawley rats, obtained from Charles River Laboratories (St Constant, Quebec), were used for all in vivo studies. Rats were individually housed (for acute nausea studies) or pair-housed [for anticipatory nausea and light-dark emergence studies] in home cages made of opaque white plastic (48×26×20 cm), containing bed-o-cob bedding from Harlan Laboratories, Inc. (Mississauga, Ontario), a brown paper towel, and Crinkl'Nest™ from The Andersons, Inc. (Maumee, Ohio). Additionally, in the home cage, rats were provided with a soft white paper container that was 14 cm long and 12 cm in diameter. All rats were subjected to an ambient temperature of 21° C. and a 12/12 h light-dark schedule (lights off at 07:00 h) and maintained on food (Highland Rat Chow [8640]) and water ad libitum. For the acute and anticipatory nausea studies, their body weights ranged from 263 to 329 g on the day of conditioning. For the light-dark emergence studies, their body weights ranged from 320 to 387 g on the day of test.\nFor the in vivo experiment 3, anxiolytic-like responding was evaluated using the light-dark emergence apparatus, which consisted of an opaque white plastic rectangular box that was divided into two compartments: a small (25 cm wide×20.5 cm long×20.5 cm high) enclosed dark box built of opaque black plastic with a door (8 cm wide×10 cm high) leading to a larger (39.5 cm long×25 cm wide) open lit box. The open lit box was illuminated by one lamp (with a 60 W bulb, 180 lux in the light chamber) positioned 115 cm above the center of the lit box. A video camera was mounted over the top of the light-dark box, and the video tapes were analyzed by the Ethovision software (Noldus Information Technology, Leesburg, Va., USA) for the duration of time spent in the light box for the 5 min test. For the foot shock (FS) session, the rats were placed in sound attenuating MED Associates fear conditioning chambers (St. Albans, Vt., USA). The 6 min FS session consisted of six 0.8 mA foot shocks delivered 1 min apart. Each 0.5 s shock was preceded by a 30 s auditory tone (90 Db, 5000 Hz) as described by Bluett et al. (2014).\nThe effect of CBDA and HU-580 on anxiety-like responding was evaluated using the light-dark box emergence test following either foot shock stress or no foot shock (No FS) stress. […]"}
{"smiles": "COc1ccccc1N1CCN(CCN(C(=O)C2CCCCC2)c2ccccn2)CC1", "note": "[WAY100635, reference compound]", "values": [{"measurement": "Time spent in the light box after foot shock (FS) stress vs No FS", "result": "spent less time in the light box following FS stress than following No FS stress"}]}
